# Measured values published in PubChem BioAssay (NCI).
#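 Results reflect a 48-hour exposure of cells in 96-well plates to compound at five concentrations. GI50 is the concentration that inhibits growth by half. At the TGI there is no net growth.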
# Assays:
# Experiment in all cases: growth of human tumour cells (NCI), 48 h
# [1] = tested on: TK-10 renal
# [2] = tested on: SF-295 CNS
# [3] = tested on: HT29 colon
# [4] = tested on: M14 melanoma
# [5] = tested on: HOP-62 NSCLC
# [6] = tested on: SW-620 colon
# [7] = tested on: SK-MEL-2 melanoma
# [8] = tested on: EKVX NSCLC
# [9] = tested on: NCI-H522 lung
# [10] = tested on: CAKI-1 renal
SMILES,GI50 [1],TGI [1],GI50 [2],TGI [2],GI50 [3],TGI [3],GI50 [4],TGI [4],GI50 [5],TGI [5],GI50 [6],TGI [6],GI50 [7],TGI [7],GI50 [8],TGI [8],GI50 [9],TGI [9],GI50 [10],TGI [10]
C/C=C(\C)C(=O)O[C@@H]1C=CC(=O)O[C@H]1COC(=O)[C@H](C)O,13 µM,25.8 µM,27.4 µM,62.1 µM,5.93 µM,20.9 µM,11.1 µM,30 µM,16.8 µM,33.3 µM,4.79 µM,15.9 µM,17.5 µM,68.6 µM,19 µM,42.1 µM,4.96 µM,20.7 µM,27 µM,42.9 µM
C=C1C(=O)C23C(O)C1CCC2C12CO[C@]3(O)[C@@H](O)C1C(C)(C)CCC2O (stereo not given in full),–,34.3 µM,–,30.6 µM,–,30.3 µM,–,24.1 µM,–,40.5 µM,–,23.8 µM,–,30.2 µM,–,28.9 µM,–,2.15 µM,–,28.5 µM
C#CCSc1nnnn1-c1ccc(Br)c(C)c1,35.4 µM,> 100 µM,29.5 µM,> 100 µM,30.3 µM,96 µM,31.1 µM,> 100 µM,64.3 µM,> 100 µM,19.1 µM,52.1 µM,21.6 µM,57 µM,4.86 µM,97.3 µM,19.1 µM,79.4 µM,2.82 µM,17.6 µM
O=[N+]([O-])c1ccc(N=Nc2c(O)[nH]c3ccc(Br)cc23)c([N+](=O)[O-])c1,–,37.8 µM,–,14.8 µM,–,> 100 µM,–,21.2 µM,–,21 µM,–,11.7 µM,–,8.04 µM,–,33.7 µM,–,8.35 µM,–,27.2 µM
O=S(=O)(Nc1ccc2ccc3cccc4ccc1c2c34)c1ccccc1,–,> 100 µM,–,> 100 µM,–,> 100 µM,–,> 100 µM,–,> 100 µM,–,> 100 µM,–,> 100 µM,–,> 100 µM,–,> 100 µM,–,> 100 µM
CCOC(=O)C1=C(O)CSC1=Nc1ccc(N=C2SCC(O)=C2C(=O)OCC)cc1,–,94.7 µM,–,63.1 µM,–,60.2 µM,–,52.5 µM,–,65.9 µM,–,66.6 µM,–,33.7 µM,–,96.7 µM,–,32.3 µM,–,30.8 µM
C[CH2][Sn]([CH2]C)([O]C(=O)c1cc(OC)c(OC)c(OC)c1)[O][Sn]([CH2]C)([CH2]C)[O]C(=O)c1cc(OC)c(OC)c(OC)c1,18.9 µM,33.6 µM,76.5 µM,> 100 µM,48.1 µM,> 100 µM,32.5 µM,> 78.9 µM,> 100 µM,> 100 µM,19.1 µM,34.9 µM,16.3 µM,35.3 µM,> 53.9 µM,> 94.8 µM,1.91 µM,5.65 µM,15.7 µM,29.8 µM
C/C(=N\NC(=S)Nc1ccccc1)c1ccccn1,1.02 µM,3.77 µM,0.109 µM,10.7 µM,0.0203 µM,2.54 µM,0.0624 µM,2.17 µM,0.0708 µM,3.61 µM,0.0242 µM,2.94 µM,1.37 µM,3.79 µM,0.0691 µM,7.38 µM,0.207 µM,1.61 µM,0.185 µM,8.74 µM
C=C(CNCCc1ccc(O)cc1)[C@@H]1CC[C@]2(CO)CC[C@]3(C)[C@H](CC[C@@H]4[C@@]5(C)CCC(NCCO)C(C)(C)[C@@H]5CC[C@]43C)[C@@H]12 (stereo not given in full),1.7 µM,3.14 µM,1.72 µM,3.34 µM,0.395 µM,1.57 µM,1.61 µM,3.13 µM,1.64 µM,3.23 µM,1.27 µM,2.68 µM,1.79 µM,3.38 µM,1.6 µM,3.41 µM,1.81 µM,3.56 µM,1.65 µM,3.29 µM
Cn1cccc1C1CC(=O)N(CCC[Se]C#N)C1=O (stereo not given),1.79 µM,4.06 µM,1.81 µM,3.29 µM,2.72 µM,28.6 µM,1.56 µM,3.89 µM,1.88 µM,3.77 µM,3.26 µM,11.8 µM,2.13 µM,5.31 µM,1.93 µM,4.46 µM,1.87 µM,4.04 µM,1.92 µM,3.57 µM
Cn1cc(-c2nonc2-c2cn(C)c3ccc(Br)cc23)c2ccccc21,5.33 µM,> 100 µM,2.89 µM,> 100 µM,3.26 µM,> 100 µM,3.93 µM,> 100 µM,5.51 µM,> 100 µM,2.53 µM,> 100 µM,3.36 µM,> 100 µM,3.82 µM,> 100 µM,3.01 µM,> 100 µM,4.33 µM,> 100 µM
CC1(C)OCC(C2OC(On3nnc4ccc(Cl)cc43)C3OC(C)(C)OC23)O1 (stereo not given),–,> 100 µM,–,> 100 µM,–,> 100 µM,–,> 100 µM,–,> 100 µM,–,> 100 µM,–,> 100 µM,–,> 100 µM,–,> 100 µM,–,> 100 µM
COc1cccc(C2C3=C(COC3=O)N(CCO)c3cc4c(cc32)CCC4)c1 (stereo not given),2.13 µM,> 50 µM,0.0148 µM,0.543 µM,0.042 µM,0.156 µM,0.0358 µM,0.208 µM,0.147 µM,> 16 µM,0.0252 µM,> 50 µM,0.0255 µM,0.239 µM,0.133 µM,> 50 µM,0.00644 µM,0.0165 µM,0.132 µM,> 50 µM
COC(=O)Oc1nn(C(=O)OC)c(=O)c2ccccc12 (tested in a mixture with another compound),–,> 100 µM,–,> 100 µM,–,> 100 µM,–,> 100 µM,–,> 100 µM,–,> 100 µM,–,> 100 µM,–,> 100 µM,–,> 100 µM,–,> 100 µM
COc1cc(C2c3cc4c(cc3[C@@H](OCCN)[C@H]3COC(=O)C23)OCO4)cc(OC)c1O (stereo not given in full),–,> 19.8 µM,–,0.543 µM,–,2.69 µM,–,3.34 µM,–,0.34 µM,–,2.45 µM,–,0.883 µM,–,2.22 µM,–,0.596 µM,–,1.52 µM
